{"source": "patent US10168342B2", "about": "“Lipid probes and uses thereof” (THE SCRIPPS RESEARCH INSTITUTE, priority 2015, dated 2019)", "test_in_all_cases": "isoTOP-ABPP mapping of AEA-DA-modified peptides in Neuro2a cells", "type_in_all_cases": "cell-based", "key": {"[1]": {"target": "T1, AEA-DA-modified peptides in Neuro2a cells (Mus musculus, UniProt P34884)", "T1 construct": "endogenous in cells; host or cells: Neuro2a", "settings": "AEA-DA-modified peptide MIF P34884 13-38, SEQ ID NO 60; probe 100 μM, 12 replicates"}, "[2]": {"target": "T2, AEA-DA-modified peptides in Neuro2a cells (Mus musculus, UniProt Q9CQX2)", "T2 construct": "endogenous in cells; host or cells: Neuro2a", "T2 sequence (Q9CQX2 12-146)": "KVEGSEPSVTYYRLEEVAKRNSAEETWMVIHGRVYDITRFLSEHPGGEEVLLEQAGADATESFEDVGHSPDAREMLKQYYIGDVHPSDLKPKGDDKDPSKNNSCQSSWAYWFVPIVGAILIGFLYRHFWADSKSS", "settings": "AEA-DA-modified peptide CYB5B Q9CQX2 138-145, SEQ ID NO 28; probe 100 μM, 12 replicates"}, "[3]": {"target": "T3, AEA-DA-modified peptides in Neuro2a cells (Mus musculus, UniProt P61205)", "T3 construct": "endogenous in cells; host or cells: Neuro2a", "T3 sequence (P61205 whole entry)": "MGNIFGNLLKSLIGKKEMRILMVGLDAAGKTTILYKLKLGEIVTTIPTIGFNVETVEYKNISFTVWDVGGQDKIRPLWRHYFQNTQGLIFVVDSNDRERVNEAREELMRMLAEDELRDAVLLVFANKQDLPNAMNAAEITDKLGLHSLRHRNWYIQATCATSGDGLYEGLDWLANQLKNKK", "settings": "AEA-DA-modified peptide ARF3 P61205 39-60, SEQ ID NO 11; probe 100 μM, 12 replicates"}, "[4]": {"target": "T4, AEA-DA-modified peptides in Neuro2a cells (Mus musculus, UniProt Q9JKF7)", "T4 construct": "endogenous in cells; host or cells: Neuro2a", "settings": "AEA-DA-modified peptide MRPL39 Q9JKF7 154-166, SEQ ID NO 61; probe 100 μM, 12 replicates"}, "[5]": {"target": "T5, AEA-DA-modified peptides in Neuro2a cells (Mus musculus, UniProt Q9CQ45)", "T5 construct": "endogenous in cells; host or cells: Neuro2a", "T5 sequence (Q9CQ45 31-171)": "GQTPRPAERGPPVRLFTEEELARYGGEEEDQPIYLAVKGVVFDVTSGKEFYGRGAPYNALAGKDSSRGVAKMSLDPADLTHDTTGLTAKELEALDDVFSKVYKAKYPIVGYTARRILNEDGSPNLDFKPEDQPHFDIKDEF", "settings": "AEA-DA-modified peptide NENF Q9CQ45 84-94, SEQ ID NO 68; probe 100 μM, 12 replicates"}, "[6]": {"target": "T6, AEA-DA-modified peptides in Neuro2a cells (Mus musculus, UniProt O55022)", "T6 construct": "endogenous in cells; host or cells: Neuro2a", "T6 sequence (O55022 whole entry)": "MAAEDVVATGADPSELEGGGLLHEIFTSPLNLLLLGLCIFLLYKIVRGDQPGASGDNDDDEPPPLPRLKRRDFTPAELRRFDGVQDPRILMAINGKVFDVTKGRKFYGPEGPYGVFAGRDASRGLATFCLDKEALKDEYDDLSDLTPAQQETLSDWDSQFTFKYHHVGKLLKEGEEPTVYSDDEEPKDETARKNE", "settings": "probe 100 μM, 12 replicates"}, "[7]": {"target": "T7, AEA-DA-modified peptides in Neuro2a cells (Mus musculus, UniProt Q99KQ4)", "T7 construct": "endogenous in cells; host or cells: Neuro2a", "T7 sequence (Q99KQ4 whole entry)": "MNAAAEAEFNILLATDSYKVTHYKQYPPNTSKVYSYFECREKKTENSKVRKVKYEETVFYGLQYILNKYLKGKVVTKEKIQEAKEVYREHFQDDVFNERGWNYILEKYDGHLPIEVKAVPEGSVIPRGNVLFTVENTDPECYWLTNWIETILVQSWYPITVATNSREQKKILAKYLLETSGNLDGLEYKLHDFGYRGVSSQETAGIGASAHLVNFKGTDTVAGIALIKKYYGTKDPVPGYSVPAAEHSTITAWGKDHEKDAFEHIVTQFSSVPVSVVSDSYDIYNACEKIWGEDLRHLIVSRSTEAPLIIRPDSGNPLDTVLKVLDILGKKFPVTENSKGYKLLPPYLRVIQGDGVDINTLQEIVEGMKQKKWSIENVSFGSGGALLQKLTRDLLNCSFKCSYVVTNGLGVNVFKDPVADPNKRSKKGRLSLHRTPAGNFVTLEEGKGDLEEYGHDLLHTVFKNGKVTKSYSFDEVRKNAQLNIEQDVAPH", "settings": "probe 100 μM, 12 replicates"}, "[8]": {"target": "T8, AEA-DA-modified peptides in Neuro2a cells (Mus musculus, UniProt Q99K48)", "T8 construct": "endogenous in cells; host or cells: Neuro2a", "T8 sequence (Q99K48 whole entry)": "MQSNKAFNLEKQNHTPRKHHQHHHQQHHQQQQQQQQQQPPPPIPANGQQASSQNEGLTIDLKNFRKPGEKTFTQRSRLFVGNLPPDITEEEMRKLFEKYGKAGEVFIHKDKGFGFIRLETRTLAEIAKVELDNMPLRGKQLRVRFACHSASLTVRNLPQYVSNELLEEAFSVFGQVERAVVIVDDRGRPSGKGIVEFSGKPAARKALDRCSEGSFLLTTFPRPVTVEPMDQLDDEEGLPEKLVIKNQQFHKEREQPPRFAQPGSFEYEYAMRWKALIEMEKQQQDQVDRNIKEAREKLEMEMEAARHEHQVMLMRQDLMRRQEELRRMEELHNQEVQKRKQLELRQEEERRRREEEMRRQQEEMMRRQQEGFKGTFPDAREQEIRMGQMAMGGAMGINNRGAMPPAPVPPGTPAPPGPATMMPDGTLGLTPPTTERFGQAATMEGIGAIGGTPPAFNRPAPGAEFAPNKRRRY", "settings": "AEA-DA-modified peptide NONO Q99K48 122-138, SEQ ID NO 69; probe 100 μM, 12 replicates"}, "[9]": {"target": "T9, AEA-DA-modified peptides in Neuro2a cells (Mus musculus, UniProt Q9CPQ8)", "T9 construct": "endogenous in cells; host or cells: Neuro2a", "T9 sequence (Q9CPQ8 whole entry)": "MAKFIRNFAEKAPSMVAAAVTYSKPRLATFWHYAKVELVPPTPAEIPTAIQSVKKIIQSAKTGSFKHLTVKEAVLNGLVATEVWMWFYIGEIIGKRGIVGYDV", "settings": "AEA-DA-modified peptide ATP5L Q9CPQ8 36-55, SEQ ID NO 19; probe 100 μM, 12 replicates"}, "[10]": {"target": "T10, AEA-DA-modified peptides in Neuro2a cells (Mus musculus, UniProt Q9CQV8)", "T10 construct": "endogenous in cells; host or cells: Neuro2a", "T10 sequence (Q9CQV8 whole entry)": "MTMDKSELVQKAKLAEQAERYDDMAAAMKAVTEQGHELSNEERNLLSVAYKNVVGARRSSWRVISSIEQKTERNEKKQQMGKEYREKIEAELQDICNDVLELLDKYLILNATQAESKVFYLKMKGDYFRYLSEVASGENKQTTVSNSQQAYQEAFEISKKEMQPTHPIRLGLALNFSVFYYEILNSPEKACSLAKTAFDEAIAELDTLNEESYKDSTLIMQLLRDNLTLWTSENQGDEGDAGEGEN", "settings": "AEA-DA-modified peptide YWHAB Q9CQV8 196-225, SEQ ID NO 120; probe 100 μM, 12 replicates"}, "[11]": {"target": "T11, AEA-DA-modified peptides in Neuro2a cells (Mus musculus, UniProt Q791V5)", "T11 construct": "endogenous in cells; host or cells: Neuro2a", "T11 sequence (Q791V5 whole entry)": "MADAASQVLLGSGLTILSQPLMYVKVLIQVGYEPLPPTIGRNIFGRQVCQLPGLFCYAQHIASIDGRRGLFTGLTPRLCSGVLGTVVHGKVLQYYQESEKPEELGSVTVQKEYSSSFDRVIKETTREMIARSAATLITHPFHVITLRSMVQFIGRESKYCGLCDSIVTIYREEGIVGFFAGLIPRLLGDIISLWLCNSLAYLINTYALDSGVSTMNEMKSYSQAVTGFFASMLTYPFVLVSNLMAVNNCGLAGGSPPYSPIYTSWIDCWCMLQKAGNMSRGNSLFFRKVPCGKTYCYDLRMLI", "settings": "AEA-DA-modified peptide MTCH2 Q791V5 91-112, SEQ ID NO 62; probe 100 μM, 12 replicates"}}, "data": [{"smiles": "C#CCCCC1(CC/C=C\\C/C=C\\C/C=C\\CCCC(=O)NCCO)N=N1", "note": "[AEA-DA, (5Z,8Z,11Z)-N-(2-hydroxyethyl)-14-(3-(pent-4-yn-1-yl)-3H-diazirin-3-yl)tetradeca-5,8,11-trienamide]", "values": [{"measurement": "Times observed", "setting": "[1]", "value": 4}, {"measurement": "Times observed", "setting": "[2]", "value": 2}, {"measurement": "Times observed", "setting": "[3]", "value": 9}, {"measurement": "Times observed", "setting": "[4]", "value": 4}, {"measurement": "Times observed", "setting": "[5]", "value": 4}, {"measurement": "Times observed", "setting": "[6]; AEA-DA-modified peptide PGRMC1 O55022 48-68, SEQ ID NO 82", "value": 2}, {"measurement": "Times observed", "setting": "[6]; AEA-DA-modified peptide PGRMC1 O55022 106-120, SEQ ID NO 81", "value": 12}, {"measurement": "Times observed", "setting": "[7]; AEA-DA-modified peptide NAMPT Q99KQ4 175-190, SEQ ID NO 64", "value": 10}, {"measurement": "Times observed", "setting": "[7]; AEA-DA-modified peptide NAMPT Q99KQ4 303-324, SEQ ID NO 65", "value": 2}, {"measurement": "Times observed", "setting": "[8]", "value": 3}, {"measurement": "Times observed", "setting": "[9]", "value": 3}, {"measurement": "Times observed", "setting": "[10]", "value": 8}, {"measurement": "Times observed", "setting": "[11]", "value": 2}]}]}
